Test results reported in US11111243B2, “Azaindole compounds as histone methyltransferase inhibitors” (GLOBAL BLOOD THERAPEUTICS, INC., priority 2017, dated 2021).
Structures can show the parent of a compound that is named as a salt.

Legend:
[1] = molecular target: T1, G9a (Homo sapiens, UniProt Q96KQ7); assay: G9a AlphaLISA enzymatic activity assay; assay type: biochemical; conditions: 0.15 nM G9a, 10 uM S-adenosyl-methionine, 100 nM biotinylated histone 3 peptide (1-21), 1 h room temperature
T1 sequence (Q96KQ7 1-1210): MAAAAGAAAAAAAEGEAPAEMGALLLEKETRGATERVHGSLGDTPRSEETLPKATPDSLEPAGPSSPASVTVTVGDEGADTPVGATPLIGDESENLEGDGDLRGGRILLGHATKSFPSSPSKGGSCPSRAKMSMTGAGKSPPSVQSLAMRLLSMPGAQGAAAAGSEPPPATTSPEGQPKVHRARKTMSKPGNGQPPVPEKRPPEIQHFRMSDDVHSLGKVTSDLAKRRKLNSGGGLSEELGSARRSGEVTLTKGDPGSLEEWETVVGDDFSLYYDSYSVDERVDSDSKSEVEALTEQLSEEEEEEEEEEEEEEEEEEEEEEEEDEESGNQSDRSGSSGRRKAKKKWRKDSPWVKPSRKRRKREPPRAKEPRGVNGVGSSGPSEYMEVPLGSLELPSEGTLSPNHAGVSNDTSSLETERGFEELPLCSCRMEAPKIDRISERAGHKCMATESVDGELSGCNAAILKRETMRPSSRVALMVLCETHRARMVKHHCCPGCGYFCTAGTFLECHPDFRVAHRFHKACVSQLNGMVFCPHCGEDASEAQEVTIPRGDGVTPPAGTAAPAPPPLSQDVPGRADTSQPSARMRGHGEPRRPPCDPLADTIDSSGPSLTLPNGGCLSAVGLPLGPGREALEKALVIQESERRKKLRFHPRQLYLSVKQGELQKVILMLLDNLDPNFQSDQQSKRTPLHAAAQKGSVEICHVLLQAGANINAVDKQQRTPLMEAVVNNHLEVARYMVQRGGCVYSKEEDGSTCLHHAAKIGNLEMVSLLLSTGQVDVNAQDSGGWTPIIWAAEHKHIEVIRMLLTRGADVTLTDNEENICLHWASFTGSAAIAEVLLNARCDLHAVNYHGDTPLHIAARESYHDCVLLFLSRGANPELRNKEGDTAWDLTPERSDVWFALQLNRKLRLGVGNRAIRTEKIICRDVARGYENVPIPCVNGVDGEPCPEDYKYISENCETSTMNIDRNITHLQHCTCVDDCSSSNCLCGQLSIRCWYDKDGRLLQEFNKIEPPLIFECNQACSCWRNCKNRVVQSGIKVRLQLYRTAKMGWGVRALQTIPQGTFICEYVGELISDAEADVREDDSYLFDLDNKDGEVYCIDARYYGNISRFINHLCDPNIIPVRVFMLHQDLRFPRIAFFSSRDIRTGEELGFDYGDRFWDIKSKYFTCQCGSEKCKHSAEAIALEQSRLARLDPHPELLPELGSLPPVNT
Outline: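 Reaction of 0.15 nM G9a with 10 uM SAM and 100 nM biotinylated histone H3 (1-21) peptide in 50 mM Tris-HCl pH9, 50 mM NaCl, 0.01% Tween-20, 1 mM DTT, 1 h at room temperature. H3K9me2 detected by AlphaLISA (anti-H3K9me2 acceptor, streptavidin donor beads, 615 nm); IC50 from percent inhibition across dilutions.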

[2] = tested on: bone marrow CD34+ hematopoietic cells; conditions: human
Method: Cryopreserved bone marrow CD34^+ hematopoietic cells obtained from healthy adult human donors were used for all studies. A 21 day ex vivo serum free culture system was utilized that consists of two phases. In culture phase I (culture days 1-7), CD34^+ cells were placed in media containing StemPro-34 complete media (1-glutamine, pen-strep and StemPro-34 nutrient supplement) (Invitrogen, Carlsbad, Calif.) supplemented with 50 ng/mL SCF (HumanZyme, Chicago, Ill.), 50 ng/mL FLT3-Ligand (HumanZyme) and 10 ng/mL IL-3 (HumanZyme). During the first phase of culture (days 0-7), the CD34^+ cells differentiate into progenitor cell populations that include erythroblasts. After 7 days, the cells were transferred to erythropoietin (EPO; Stemcell) supplemented medium (phase 2; culture days 7-21) which is comprised of the following: StemPro-34 complete medium, 4 U/mL EPO, 3 μM mifepristone (Sigma Aldrich, St. Louis, Mo.), 10 μg/mL insulin (Sigma Aldrich), 3 U/mL heparin (Sigma Aldrich) and 0.8 mg/mL holo transferrin (Sigma Aldrich). […]
Expression levels of α-, β- and γ-globin genes are assessed by quantitative PCR analyses. HbF protein levels are assessed by the human Hemoglobin F enzyme-linked immunosorbent assay (ELISA) Quantitation Kit (Bethyl Laboratory, Montgomery, Tex., USA). Percentages of cells expressing HbF are assessed by flow cytometry analysis. […]

Row | SMILES | IC50 [1] [nM] | Fold Induction [2] [fold]
1 | COc1cc2c(cc1OCCCN1CCCC1)[nH]c1ccnc(C3=CCNCC3)c12 [Compound 66, 4-{8-methoxy-7-[3-(pyrrolidin-1-yl)propoxy]-5H-pyrido[4,3-b]indol-1-yl}-1,2,3,6-tetrahydropyridine bishydrochloride] | 5.6 | 1.3
2 | COc1cc2c(cc1OCCCN1CCCC1)[nH]c1cc(C3CC3)ncc12 [Compound 101, 1-[3-({3-cyclopropyl-8-methoxy-5H-pyrido[4,3-b]indol-7-yl}oxy)propyl]pyrrolidine hydrochloride] | 120 | –
3 | CCN(CC)CCCOc1cc2[nH]c3ccnc(C4CC4)c3c2cc1OC [Compound 102, [3-({1-cyclopropyl-8-methoxy-5H-pyrido[4,3-b]indol-7-yl}oxy)propyl]diethylamine hydrochloride] | 140 | –
